Measured values reported in ChEMBL document CHEMBL5365497, “Developing Novel Coumarin-Containing Azoles Antifungal Agents by the Scaffold Merging Strategy for Treating Azole-Resistant Candidiasis” (J Med Chem, 2023).
Values after ≈ are worked out from the molar mass of the structure shown. Active and inactive are the calls of the source. No cut-off for these calls is given here.

Tests used:
Candida albicans [1] = assay: Antifungal activity against Candida albicans CPCC400616 assessed as fungal growth inhibition by CLSI based microdilution method; format: functional
Candida albicans [2] = assay: Antifungal activity against Candida albicans SC5314 assessed as fungal growth inhibition by CLSI based microdilution method; format: functional
Candida parapsilosis = assay: Antifungal activity against Candida parapsilosis assessed as fungal growth inhibition by CLSI based microdilution method; format: functional; details: Lodderomyces parapsilosis
Nakaseomyces glabratus = assay: Antifungal activity against Candida glabrata assessed as fungal growth inhibition by CLSI based microdilution method; format: functional
Pichia kudriavzevii = assay: Antifungal activity against Pichia kudriavzevii assessed as fungal growth inhibition by CLSI based microdilution method; format: functional
Candida tropicalis = assay: Antifungal activity against Candida tropicalis assessed as fungal growth inhibition by CLSI based microdilution method; format: functional
Cryptococcus neoformans = assay: Antifungal activity against Cryptococcus neoformans assessed as fungal growth inhibition by CLSI based microdilution method; format: functional
Candida albicans [3] = assay: Antifungal activity against Candida albicans SC5314 assessed as destruction of cell membrane at 16 ug/ml incubated for 24 hrs by TEM analysis; format: functional, organism-based; details: dose 16.0 µg/ml
Candida albicans [4] = assay: Antifungal activity against Candida albicans SC5314 assessed as fragmented nuclei at 16 ug/ml incubated for 24 hrs by TEM analysis; format: functional, organism-based; details: dose 16.0 µg/ml
Candida albicans [5] = assay: Antifungal activity against Candida albicans SC5314 assessed as destruction of cell wall at 16 ug/ml incubated for 24 hrs by TEM analysis; format: functional, organism-based; details: dose 16.0 µg/ml
Candida albicans [6] = assay: Antifungal activity against fluconazole-resistant Candida albicans CaR assessed as fungal growth inhibition by CLSI based microdilution method; format: functional
Candida albicans [7] = assay: Antifungal activity against fluconazole-resistant Candida albicans 17# assessed as fungal growth inhibition by CLSI based microdilution method; format: functional
Candida albicans [8] = assay: Antifungal activity against fluconazole-resistant Candida albicans 632 assessed as fungal growth inhibition by CLSI based microdilution method; format: functional
Candida albicans [9] = assay: Antifungal activity against fluconazole-resistant Candida albicans 904 assessed as fungal growth inhibition by CLSI based microdilution method; format: functional
Candida albicans [10] = assay: Antifungal activity against fluconazole-resistant Candida albicans 901 assessed as fungal growth inhibition by CLSI based microdilution method; format: functional
Candida albicans [11] = assay: Antifungal activity against fluconazole-resistant Candida albicans 904 assessed as fungal growth inhibition measured for 48 hrs by CLSI based microdilution method; format: functional

| SMILES | MIC (Candida albicans [1]) | MIC (Candida albicans [2]) | MIC (Candida parapsilosis) | MIC (Nakaseomyces glabratus) | MIC (Pichia kudriavzevii) | MIC (Candida tropicalis) | MIC (Cryptococcus neoformans) | Activity (Candida albicans [3]) | Activity (Candida albicans [4]) | Activity (Candida albicans [5]) | MIC (Candida albicans [6]) | MIC (Candida albicans [7]) | MIC (Candida albicans [8]) | MIC (Candida albicans [9]) | MIC (Candida albicans [10]) | MFC (Candida albicans [11]) |
| --- | --- | --- | --- | --- | --- | --- | --- | --- | --- | --- | --- | --- | --- | --- | --- | --- |
| OC(Cn1cncn1)(Cn1cncn1)c1ccc(F)cc1F [FLUCONAZOLE] | 4 mg/L (≈ 13.1 µM) | 0.5 mg/L (≈ 1.63 µM) | 4 mg/L (≈ 13.1 µM) | 32 mg/L (≈ 104 µM) | 32 mg/L (≈ 104 µM) | 2 mg/L (≈ 6.53 µM) | 4 mg/L (≈ 13.1 µM) | Active | Active | inactive | > 128 mg/L | > 128 mg/L | > 128 mg/L | > 128 mg/L | > 128 mg/L | > 128 mg/L |
| O=c1oc2ccccc2cc1COC(Cn1ccnc1)c1ccc(F)cc1 (stereo not drawn) | 0.06 mg/L (≈ 0.165 µM) | 0.03 mg/L (≈ 0.0823 µM) | < 0.25 mg/L | 1 mg/L (≈ 2.74 µM) | 1 mg/L (≈ 2.74 µM) | 0.5 mg/L (≈ 1.37 µM) | 0.125 mg/L (≈ 0.343 µM) | – | – | – | 0.5 mg/L (≈ 1.37 µM) | 2 mg/L (≈ 5.49 µM) | 8 mg/L (≈ 22 µM) | 4 mg/L (≈ 11 µM) | 8 mg/L (≈ 22 µM) | – |
